Measurements as given in publication PMC10816808, “Enhancement of the Antitumor and Antimetastatic Effect of Topotecan and Normalization of Blood Counts in Mice with Lewis Carcinoma by Tdp1 Inhibitors—New Usnic Acid Derivatives” (International Journal of Molecular Sciences, 2024).
Values joined by “and” are separate entries in the source; they are usually repeats but may differ in a detail not shown here. Equal values may be shown once.

Key:
[1] = Toxic effect in mice with Krebs-2 carcinoma (body weight, liver and spleen indices); type: in vivo; settings: for Weight of an individual with ascites / Weight of an individual without ascites: individual animals, mice with Krebs-2; for organ index, Liver (group mean) / organ index, Spleen (group mean): mice with Krebs-2 carcinoma
Excerpt: (§1) We also studied the effect of topotecan, compound 7, and their combinations on changes in body weight of mice with LLC from days 1 to 18 after tumor transplantation and of mice with Krebs-2 carcinoma from days 1 to 8.
(§2) In addition, at the end of the experiments, we removed and weighed the liver and spleen, and calculated the liver and spleen indices.
(§3) The toxic effects of the substances were inferred from the changes in body weight during the experiment (the mice with LLC were weighed on days 1, 3, 5, 7, 10, 12, 14, 16, and 18 after grafting) and the liver and spleen weight indices at the end of the experiment.

[2] = Leukocyte and erythrocyte counts in peripheral blood of mice with Krebs-2 carcinoma; type: in vivo
Experimental: We also counted leukocytes and erythrocytes in mice with Krebs-2 carcinoma. […] An increase in white blood cell count in the peripheral blood is associated with the inflammatory process that develops during tumor formation and growth. […] It should be noted that topotecan at the dose of 1 mg/kg was not hemotoxic and partly normalized the concentrations of leukocytes and erythrocytes, apparently due to its antitumor effect. Treatment of mice with only compound 7, regardless of the route of administration, reduced the number of leukocytes somewhat more effectively than the drugs listed above, but the decrease was significant only in comparison with the control without treatment.
White and red blood cell counts were determined using a Goryaev chamber using a BIOSCOP-1 microscope (LOMO-MA, St. Petersburg, Russia).

[3] = test system: Krebs-2 ascitic carcinoma; assay: Antitumor effect in the Krebs-2 ascitic carcinoma model; type: in vivo, mice; settings: for average ascites weight: C57BL mice with Krebs-2, single dose on day 4; for average ascites weight / Average number of tumor cells in ascites: mean ± SD; for Ascites weight / Total number of tumor cells / Tumor cell concentration: individual animals; for Ascites weight / Total number of tumor cells / Tumor cell concentration / Average number of tumor cells in ascites: mice with Krebs-2
Excerpt: The Krebs-2 cancer cell line was obtained from the cell depository of the Institute of Cytology and Genetics SB RAS (Novosibirsk, Russia), and is maintained in mice as a transplanted tumor. Krebs-2 carcinoma is nonspecific to the different genetic constitutions of mice and is weakly immunogenic for mice of all strains. The biological source of Krebs-2 is the epithelial cells of the abdominal wall of the mouse. With intraperitoneal transplantation of tumor cells, an ascitic form is formed.
The effect of the drugs was assessed by the weight of ascites and the number of tumor cells in it.
Strain-nonspecific Krebs-2 ascitic carcinoma was grafted to C57BL mice. Tumor cells were suspended in 0.9% NaCl prior to grafting and injected intraperitoneally (2 million cells per mouse, in 0.2 mL). An ascitic tumor develops after intraperitoneal inoculation, has low immunogenicity, and produces no metastasis during the experiment at the used dose of tumor cells.
The mice were also divided into groups of 6–7 individuals. Treatment was carried out once on the 4th day after tumor transplantation: • - Group 1—Intact control—mice of this group were inoculated with a tumor, receiving 0.2 mL of saline intraperitoneally; • - Group 2—DMSO-Tween-80—mice were injected once intragastrically with a probe 200 μL of a solution containing saline, Tween-80 (10%), and DMSO (15%); • - Group 3—DMSO-Tween-80—mice were injected once intraperitoneally with a solvent for 7; • - Group 4—Tpc (aqueous solution)—mice were injected once intraperitoneally with 200 µL of Tpc at a single dose of 1 mg/kg; • - Group 5—Tpc + 7 i/g—mice received Tpc once as described for groups 3 and 7 in the form of 200 µL of suspension in Tween-80-DMSO once intragastrically at a dose of 50 mg/kg; • - Group 6—Tpc + 7 i/p—mice were injected with topotecan once as described for groups 3 and 7 in the form of 200 µL of suspension Tween-80-DMSO once intraperitoneally at a dose of 50 mg/kg; • - Group 7—7 i/g—mice were injected with 7 as described for group 5; • - Group 8—7 i/p—mice were injected with 7 as described for group 6.
The ascitic tumor weight and the cancer cell concentration in the ascitic fluid (as counted with a Goryaev chamber) were evaluated at the end of the experiment to estimate the effects of the substances. To prepare the samples for cell counting with a Goryaev chamber, 10 μL of the ascitic fluid was combined with 400 μL of saline (a 40-fold dilution). Cells were counted in five large squares, each divided into 16 small squares (80 squares in total) at a low magnification.

[4] = Toxic effect in mice with LLC (body weight, liver and spleen indices)
Excerpt: as §1, §2, §3

[5] = 7 50 mg/kg i/g, alone or with Tpc 1 mg/kg i/p
[6] = Tpc 1 mg/kg i/p and/or 7 50 mg/kg i/p

SMILES	Weight of an individual with ascites [1, 6]	Weight of an individual without ascites [1, 6]	organ index, Liver (group mean) ([1]; Topotecan and/or 7 i/p) [%]	organ index, Spleen (group mean) ([1]; Topotecan and/or 7 i/p) [%]	Concentration of erythrocytes in peripheral blood [2, 6] [million/µL]	Concentration of leukocytes in peripheral blood [2, 6] [thousand/µL]	average ascites weight [3, 6]	Ascites weight [3, 6]	Total number of tumor cells [3, 6]	Tumor cell concentration [3, 6]	Average number of tumor cells in ascites [3, 6]	changes in body weight of mice (in words) ([4]; mouse, in vivo)	organ index, Spleen (group mean) ([4]; mouse, in vivo) [%]	other results
C/C(NCCCc1cc(C(C)(C)C)c(O)c(C(C)(C)C)c1)=C1\C(=O)C=C2Oc3c(-c4csc(N/N=C/c5ccc(Br)cc5)n4)c(O)c(C)c(O)c3[C@@]2(C)C1=O [Compound 7, (4E)-10-{2-[(E)-2-[(4-bromophenyl)methylidene]hydrazin-1-yl]-1,3-thiazole-4-yl}-4-(1-{[3-(3,5-di-tret-butyl-4-hydroxyhenyl)propyl]amino}ethylidene)-11,13-dihydroxy-2,12-dimethyl-8-oxatricyclo [7.4.0.02,7]trideca-1(13),6,9,11-tetraen-3,5-dione]	21.5 g and 22.2 g and 21.3 g and 22.1 g and 23.4 g and 24.9 g	18.4 g and 19.8 g and 16.8 g and 16.6 g and 19.4 g and 18.2 g and 18.7 g	4.1±0.3	1.0±0.1	7 ± 0.6	10.1 ± 0.9	4,1±1,4 g	3.1 g and 2.4 g and 4.5 g and 5.5 g and 2.1 g and 5.2 g and 6.2 g	204.6 million and 105.6 million and 234 million and 165 million and 44.1 million and 530.4 million and 576.6 million	66 million/ml and 44 million/ml and 52 million/ml and 30 million/ml and 21 million/ml and 102 million/ml and 93 million/ml	265,8±164,4 million	tendency towards an increase in the weight of animals	1.3±0.2	Weight of an individual with ascites [1, 5]: 24.5 g and 22.7 g and 21 g and 23.3 g; Weight of an individual without ascites [1, 5]: 19.9 g and 16.5 g and 16.4 g and 19.4 g and 18.8 g; organ index, Liver (group mean) ([1]; 7 i/g, alone or with Topotecan): 4.4±0.5%; organ index, Spleen (group mean) ([1]; 7 i/g, alone or with Topotecan): 1.2±0.1%; Concentration of erythrocytes in peripheral blood [2, 5]: 7.2 ± 0.6 million/µL; Concentration of leukocytes in peripheral blood [2, 5]: 10.7 ± 0.8 thousand/µL; average ascites weight [3, 5]: 5±0,5 g; Ascites weight [3, 5]: 4.6 g and 6.2 g and 5.1 g and 4.5 g; Total number of tumor cells [3, 5]: 372.6 million and 403 million and 230 million and 209.1 million and 162 million; Tumor cell concentration [3, 5]: 81 million/ml and 65 million/ml and 50 million/ml and 41 million/ml and 36 million/ml; Average number of tumor cells in ascites [3, 5]: 275,3±90 million; tolerability / acute toxic effect (in words) ([4]; mouse, in vivo): well tolerated and did not cause acute toxic effect
CC[C@@]1(O)C(=O)OCc2c1cc1n(c2=O)Cc2cc3c(CN(C)C)c(O)ccc3nc2-1 [Tpc, topotecan]	21 g and 23.5 g and 23.4 g and 21.2 g and 22.9 g and 21.4 g and 21.9 g	18.7 g and 17.9 g and 19.9 g and 19.2 g and 20 g and 19 g and 19.5 g	4.8±0.6	1.3±0.2	7.6 ± 0.4	11.2 ± 0.7	3±0,9 g	2.3 g and 5.6 g and 3.5 g and 2 g and 2.9 g and 2.4 g	218.5 million and 459.2 million and 266 million and 182 million and 188.5 million and 120 million and 148.8 million	95 million/ml and 82 million/ml and 76 million/ml and 91 million/ml and 65 million/ml and 50 million/ml and 62 million/ml	226,1±78 million	tendency towards an increase in the weight of animals	1.19±0.04	hemotoxicity (in words) ([2]; dose of 1 mg/kg): not hemotoxic; tolerability / acute toxic effect (in words) ([4]; mice with LLC and mice with Krebs-2 carcinoma): well tolerated and did not cause acute toxic effect; organ index, Liver (group mean) ([4]; mouse, in vivo): 5.6±0.7%
